{"source": "ChEMBL document CHEMBL5360539", "about": "“RSK inhibitors as potential anticancer agents: Discovery, optimization, and challenges” (Eur J Med Chem, 2023)", "key": {"[1]": {"target": "Ribosomal protein S6 kinase alpha-1 (Homo sapiens, UniProt Q15418)", "sequence (Q15418 whole entry)": "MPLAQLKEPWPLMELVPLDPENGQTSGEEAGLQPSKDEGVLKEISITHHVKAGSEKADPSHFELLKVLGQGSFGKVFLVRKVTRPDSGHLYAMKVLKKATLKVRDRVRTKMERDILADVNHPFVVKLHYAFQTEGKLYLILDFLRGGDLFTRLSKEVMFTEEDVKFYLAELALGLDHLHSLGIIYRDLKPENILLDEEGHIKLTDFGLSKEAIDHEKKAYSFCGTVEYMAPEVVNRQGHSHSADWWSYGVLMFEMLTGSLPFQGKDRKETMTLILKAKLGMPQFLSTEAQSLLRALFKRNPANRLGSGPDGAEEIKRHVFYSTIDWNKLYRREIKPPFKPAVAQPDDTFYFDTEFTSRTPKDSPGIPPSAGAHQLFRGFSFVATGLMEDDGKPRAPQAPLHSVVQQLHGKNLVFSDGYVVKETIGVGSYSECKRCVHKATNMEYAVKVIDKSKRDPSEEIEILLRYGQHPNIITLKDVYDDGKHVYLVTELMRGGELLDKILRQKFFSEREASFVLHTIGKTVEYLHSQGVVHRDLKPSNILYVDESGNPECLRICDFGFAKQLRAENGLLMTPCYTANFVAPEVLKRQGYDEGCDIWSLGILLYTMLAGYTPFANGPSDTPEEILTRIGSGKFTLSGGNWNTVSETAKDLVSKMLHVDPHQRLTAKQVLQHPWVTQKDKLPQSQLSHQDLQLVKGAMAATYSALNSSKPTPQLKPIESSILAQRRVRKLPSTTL", "assay": "Inhibition of RSK1 (unknown origin)"}, "[2]": {"target": "T1, Ribosomal protein S6 kinase alpha-3 (Homo sapiens, UniProt P51812)", "T1 sequence (P51812 whole entry)": "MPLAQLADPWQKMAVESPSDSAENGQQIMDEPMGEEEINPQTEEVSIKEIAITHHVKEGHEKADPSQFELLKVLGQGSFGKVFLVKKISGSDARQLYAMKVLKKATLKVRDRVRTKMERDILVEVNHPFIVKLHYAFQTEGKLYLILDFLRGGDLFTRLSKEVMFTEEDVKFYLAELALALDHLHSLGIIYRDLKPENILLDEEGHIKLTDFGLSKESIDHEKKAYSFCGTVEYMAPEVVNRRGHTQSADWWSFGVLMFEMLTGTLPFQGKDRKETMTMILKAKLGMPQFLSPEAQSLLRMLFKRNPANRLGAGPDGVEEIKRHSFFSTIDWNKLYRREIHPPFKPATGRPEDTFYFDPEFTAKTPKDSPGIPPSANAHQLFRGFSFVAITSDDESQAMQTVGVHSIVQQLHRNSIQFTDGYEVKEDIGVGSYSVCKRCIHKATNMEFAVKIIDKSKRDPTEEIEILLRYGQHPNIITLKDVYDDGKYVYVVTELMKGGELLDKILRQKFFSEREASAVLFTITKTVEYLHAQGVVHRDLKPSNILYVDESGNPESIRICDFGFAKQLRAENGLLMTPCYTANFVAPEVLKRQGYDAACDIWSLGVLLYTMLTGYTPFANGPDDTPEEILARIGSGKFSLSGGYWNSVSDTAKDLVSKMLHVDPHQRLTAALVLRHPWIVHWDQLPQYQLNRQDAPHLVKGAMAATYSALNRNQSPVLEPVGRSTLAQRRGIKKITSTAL", "assay": "Inhibition of RSK2 (unknown origin)"}, "[3]": {"target": "Ribosomal protein S6 kinase alpha-2 (Homo sapiens, UniProt Q15349)", "sequence (Q15349 whole entry)": "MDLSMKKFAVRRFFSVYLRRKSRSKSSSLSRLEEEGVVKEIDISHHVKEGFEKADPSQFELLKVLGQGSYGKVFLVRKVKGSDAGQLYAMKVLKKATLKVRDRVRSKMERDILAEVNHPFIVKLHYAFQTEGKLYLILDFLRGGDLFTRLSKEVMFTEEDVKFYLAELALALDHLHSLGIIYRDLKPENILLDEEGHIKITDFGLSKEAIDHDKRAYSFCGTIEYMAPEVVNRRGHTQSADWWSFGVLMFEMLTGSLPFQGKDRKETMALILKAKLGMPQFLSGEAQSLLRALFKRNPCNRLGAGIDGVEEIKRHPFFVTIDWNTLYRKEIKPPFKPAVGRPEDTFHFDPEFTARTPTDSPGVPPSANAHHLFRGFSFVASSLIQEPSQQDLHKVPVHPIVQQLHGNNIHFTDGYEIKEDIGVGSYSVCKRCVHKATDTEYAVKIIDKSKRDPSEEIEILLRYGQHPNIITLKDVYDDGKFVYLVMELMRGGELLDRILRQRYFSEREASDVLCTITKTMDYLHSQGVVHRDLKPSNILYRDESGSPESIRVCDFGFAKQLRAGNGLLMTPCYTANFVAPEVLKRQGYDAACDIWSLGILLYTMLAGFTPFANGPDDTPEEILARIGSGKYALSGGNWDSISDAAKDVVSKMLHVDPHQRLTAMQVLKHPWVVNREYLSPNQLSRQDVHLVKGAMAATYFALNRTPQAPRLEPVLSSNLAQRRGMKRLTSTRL", "assay": "Inhibition of RSK3 (unknown origin)"}, "[4]": {"target": "T1, Ribosomal protein S6 kinase alpha-3", "assay": "Inhibition of wild type RSK2 (unknown origin)"}, "[5]": {"target": "T1, Ribosomal protein S6 kinase alpha-3", "assay": "Inhibition of recombinant His-tagged RSK2 (unknown origin) expressed in Sf9 cells"}, "[6]": {"target": "Ribosomal protein S6 kinase alpha-6 (Homo sapiens, UniProt Q9UK32)", "sequence (Q9UK32 whole entry)": "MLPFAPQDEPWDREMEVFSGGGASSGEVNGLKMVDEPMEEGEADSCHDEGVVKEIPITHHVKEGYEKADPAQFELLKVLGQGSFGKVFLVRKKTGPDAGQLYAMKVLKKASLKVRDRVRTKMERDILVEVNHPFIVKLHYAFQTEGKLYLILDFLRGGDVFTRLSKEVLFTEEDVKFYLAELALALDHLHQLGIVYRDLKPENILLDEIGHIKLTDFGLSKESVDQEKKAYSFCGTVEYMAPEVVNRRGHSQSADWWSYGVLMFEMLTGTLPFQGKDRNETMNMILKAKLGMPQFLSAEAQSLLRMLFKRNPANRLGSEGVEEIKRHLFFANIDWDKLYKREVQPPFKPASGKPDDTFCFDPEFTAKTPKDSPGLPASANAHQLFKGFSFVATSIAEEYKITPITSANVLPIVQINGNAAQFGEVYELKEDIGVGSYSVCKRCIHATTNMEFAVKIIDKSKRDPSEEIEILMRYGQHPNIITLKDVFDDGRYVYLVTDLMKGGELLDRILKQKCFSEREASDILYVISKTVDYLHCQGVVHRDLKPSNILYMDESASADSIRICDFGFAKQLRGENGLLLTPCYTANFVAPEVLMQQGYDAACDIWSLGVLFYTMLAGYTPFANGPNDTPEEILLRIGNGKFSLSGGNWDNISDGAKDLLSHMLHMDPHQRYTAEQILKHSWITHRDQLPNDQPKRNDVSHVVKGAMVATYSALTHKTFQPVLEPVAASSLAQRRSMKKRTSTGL", "assay": "Inhibition of RSK4 (unknown origin)"}, "[7]": {"assay": "Inhibition of recombinant N-terminal RSK (unknown origin) expressed in Sf21 cells", "parameters": "species or system Homo sapiens"}, "[8]": {"target": "T1, Ribosomal protein S6 kinase alpha-3", "assay": "Inhibition of human recombinant RSK2"}, "[9]": {"target": "T1, Ribosomal protein S6 kinase alpha-3", "assay": "Inhibition of RSK2 expressed in human MCF7 cells incubated for 1 hrs by", "assay_type": "cell-based"}}, "note": "Counter-ions that a name gives are not always drawn.", "data": [{"molecule": "O=C1Nc2ccccc2/C1=C1/Nc2ccccc2/C1=N\\O", "values": [{"measurement": "IC50", "setting": "[1]", "value": 100, "unit": "nM"}]}, {"molecule": "CC(=O)O[C@@H]1[C@@H](OC(C)=O)[C@@H](O)[C@H](Oc2c(-c3ccc(O)cc3)oc3cc(O)cc(O)c3c2=O)O[C@H]1C", "values": [{"measurement": "IC50", "setting": "[1]", "value": 89, "unit": "nM"}]}, {"molecule": "O=C1c2ccccc2-c2c(NCCc3ccccc3)c(=O)[nH]c3cccc1c23", "values": [{"measurement": "IC50", "setting": "[2]", "value": 2400, "unit": "nM"}, {"measurement": "IC50", "setting": "[1]", "value": 1500, "unit": "nM"}, {"measurement": "IC50", "setting": "[3]", "value": 1200, "unit": "nM"}]}, {"molecule": "Cc1ccc(-c2c(C(=O)CCl)n(CCCO)c3ncnc(N)c23)cc1", "values": [{"measurement": "IC50", "setting": "[4]", "value": 15, "unit": "nM"}]}, {"molecule": "CCCNC(=O)O[C@H]1[C@H](CCC)C[C@@H](Oc2c(-c3ccc(O)cc3)oc3cc(O)cc(O)c3c2=O)[C@H](O)[C@@H]1OC(=O)NCCC", "values": [{"measurement": "IC50", "setting": "[5]", "value": 870, "unit": "nM"}]}, {"molecule": "CCCNC(=O)O[C@@H]1[C@@H](OC(C)=O)[C@@H](O)[C@H](Oc2c(-c3ccc(O)cc3)oc3cc(O)cc(O)c3c2=O)O[C@H]1CCC", "values": [{"measurement": "IC50", "setting": "[6]", "value": 6200, "unit": "nM"}]}, {"molecule": "CCC[C@@H]1C[C@@H](Oc2c(-c3ccc(O)cc3)oc3cc(O)cc(O)c3c2=O)[C@H](O)[C@H](OC(C)=O)[C@H]1OC(C)=O", "values": [{"measurement": "IC50", "setting": "[5]", "value": 870, "unit": "nM"}]}, {"molecule": "CC(C)CCN1c2nc(Nc3cc(F)c(O)c(F)c3)ncc2N(C)C(=O)C1C", "note": "(stereo unspecified)", "values": [{"measurement": "IC50", "setting": "[7]", "value": 10, "unit": "nM"}]}, {"molecule": "Cn1cc(C2=C(c3cn(CCCSC(=N)N)c4ccccc34)C(=O)NC2=O)c2ccccc21", "note": "[BISINDOLYLMALEIMIDE IX]", "values": [{"measurement": "IC50", "setting": "[1]", "value": 200, "unit": "nM"}]}, {"molecule": "COC(=O)/C=C/C(=O)OC", "note": "[DIMETHYL FUMARATE]", "values": [{"measurement": "IC50", "setting": "[8]", "value": 225000, "unit": "nM"}]}, {"molecule": "O=C1C[C@@H](c2ccc(O)c(O)c2)Oc2cc(O)cc(O)c21", "note": "[ERIODICTYOL]", "values": [{"measurement": "IC50", "setting": "[9]", "value": 4770, "unit": "nM"}]}, {"molecule": "CN(C)CCCn1cc(C2=C(c3c[nH]c4ccccc34)C(=O)NC2=O)c2ccccc21", "note": "[GF-109203]", "values": [{"measurement": "IC50", "setting": "[1]", "value": 610, "unit": "nM"}]}, {"molecule": "CC(C)=CCC1=C(O)C(=O)c2ccccc2C1=O", "note": "[LAPACHOL]", "values": [{"measurement": "IC50", "setting": "[2]", "value": 2000, "unit": "nM"}]}, {"molecule": "Cn1cc(C2=C(c3ccc(Cl)cc3Cl)C(=O)NC2=O)c2ccccc21", "note": "[SB-216763]", "values": [{"measurement": "IC50", "setting": "[1]", "value": 100, "unit": "nM"}]}]}
